Assays:
[1] = molecular target: Angiotensin II receptor (Homo sapiens) (UniProt P30556+P50052); assay: In vitro functional antagonistic affinity measured against angiotensin II receptor in paired rings of rabbit aorta; assay type: tissue-based; conditions: Oryctolagus cuniculus, target entry is the homologue from another species
[2] = molecular target: T1, Type-1 angiotensin II receptor (Bos taurus, UniProt P25104); assay: Inhibition of [125I]AII binding to angiotensin II receptor of bovine adrenal cortex; assay type: tissue-based; conditions: read-out: EC50 (the source's name)
T1 sequence (P25104 whole entry): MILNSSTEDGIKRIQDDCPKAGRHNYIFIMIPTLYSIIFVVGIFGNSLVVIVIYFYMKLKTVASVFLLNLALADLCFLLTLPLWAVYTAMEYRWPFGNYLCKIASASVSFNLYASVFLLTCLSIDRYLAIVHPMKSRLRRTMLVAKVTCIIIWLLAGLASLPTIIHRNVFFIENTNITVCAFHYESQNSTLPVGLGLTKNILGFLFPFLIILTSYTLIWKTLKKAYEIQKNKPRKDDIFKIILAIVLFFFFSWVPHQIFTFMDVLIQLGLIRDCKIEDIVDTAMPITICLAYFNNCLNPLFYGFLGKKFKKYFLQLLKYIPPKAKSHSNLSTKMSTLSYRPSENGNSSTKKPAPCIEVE

[3] = test system: Rattus norvegicus; assay: In vivo potency determined as dose given iv to produce reduction in angiotensin II pressor response in normotensive rats; assay type: functional; conditions: read-out: ID50 (the source's name)
[4] = test system: Rattus norvegicus; assay: Tested for in vitro inhibition of specific binding of [125I]AII for bolus injection of 0.3 mg/kg lasting up to 90 min post dose; assay type: functional; conditions: 1.5 h

Structure (SMILES): O=c1c(-c2ccccc2)c(O)c2ccc([N+](=O)[O-])cc2n1Cc1ccc(-c2ccccc2-c2nn[nH]n2)cc1
- pKB [1]: 7.5

Structure (SMILES): CCCCc1nc(Cl)c(CO)n1Cc1ccc(-c2ccccc2C(=O)O)cc1
- pKB [1]: 7.1

Structure (SMILES): CS(=O)(=O)c1ccc2c(O)c(-c3ccccc3)c(=O)n(Cc3ccc(-c4ccccc4-c4nn[nH]n4)cc3)c2c1
- pKB [1]: 5.9
- IC50 [2]: ~30000 nM

Structure (SMILES): CCOc1ccc2c(O)c(Cc3ccccc3)c(=O)n(Cc3ccc(-c4ccccc4C(=O)O)cc3)c2c1
- pKB [1]: 7.8

Structure (SMILES): COc1ccc2c(O)cc(=O)n(Cc3ccc(-c4ccccc4C(=O)O)cc3)c2c1
- pKB [1]: 6.3

Structure (SMILES): CCCc1cc2ncnc-2c(O)n1Cc1ccc(-c2ccccc2-c2nn[nH]n2)cc1
- ED50 [3]: 0.18 mg/kg
- pKB [1]: 9.1

Structure (SMILES): Cc1ccc2c(O)c(-c3ccccc3)c(=O)n(Cc3ccc(-c4ccccc4-c4nn[nH]n4)cc3)c2n1
- pKB [1]: 7

Structure (SMILES): CCOc1ccc2c(O)c(-c3ccccc3)c(=O)n(Cc3ccc(-c4ccccc4-c4nn[nH]n4)cc3)c2c1
- ED50 [3]: 1.3 mg/kg
- pKB [1]: 7.1

Structure (SMILES): CCc1cc2c(O)cc(=O)n(Cc3ccc(-c4ccccc4-c4nn[nH]n4)cc3)c2s1
- pKB [1]: 9.6

Structure (SMILES): O=c1c(Cc2ccccc2)c(O)c2ccccc2n1Cc1ccc(-c2ccccc2-c2nn[nH]n2)cc1
- pKB [1]: 7.5

Structure (SMILES): CCc1ccc2c(O)c(-c3ccccc3)c(=O)n(Cc3ccc(-c4ccccc4C(=O)O)cc3)c2c1
- pKB [1]: 7.2

Structure (SMILES): COc1ccc2c(O)c(-c3ccccc3)c(=O)n(Cc3ccc(-c4ccccc4-c4nn[nH]n4)cc3)c2c1
- ED50 [3]: 2.5 mg/kg
- pKB [1]: 7.4

Structure (SMILES): CCOc1ccc2c(O)c(-c3ccccc3)c(=O)n(Cc3ccc(-c4ccccc4-c4nnn[nH]4)cc3)c2c1
- IC50 [2]: 500 nM

Structure (SMILES): CCCc1cc2c(ncn2C)c(=O)n1Cc1ccc(-c2ccccc2-c2nn[nH]n2)cc1
- pKB [1]: 7.6

Structure (SMILES): O=c1c(-c2ccccc2)c(O)c2sccc2n1Cc1ccc(-c2ccccc2-c2nn[nH]n2)cc1
- ED50 [3]: 3.2 mg/kg
- pKB [1]: 7.4
- IC50 [2]: 6000 nM

Structure (SMILES): COc1ccc2c(O)c(-c3ccccc3)c(=O)n(Cc3ccc(-c4ccccc4C(=O)O)cc3)c2c1
- pKB [1]: 6.7
- IC50 [2]: 9500 nM

Structure (SMILES): COc1ccc2c(O)cc(=O)n(Cc3ccc(-c4ccccc4-c4nn[nH]n4)cc3)c2c1
- ED50 [3]: 1.08 mg/kg
- pKB [1]: 8.3

Structure (SMILES): CCCc1cc2nc(O)nc-2c(O)n1Cc1ccc(-c2ccccc2-c2nn[nH]n2)cc1
- pKB [1]: 6.4

Structure (SMILES): CSc1ccc2c(O)c(-c3ccccc3)c(=O)n(Cc3ccc(-c4ccccc4-c4nn[nH]n4)cc3)c2c1
- pKB [1]: 6.6
- IC50 [2]: 600 nM

Structure (SMILES): CCCCc1c(O)c2ccc(OC)cc2n(Cc2ccc(-c3ccccc3C(=O)O)cc2)c1=O
- pKB [1]: 6.6

Structure (SMILES): CCCc1cc2ncn(C)c2c(=O)n1Cc1ccc(-c2ccccc2-c2nn[nH]n2)cc1
- inhibition in vivo at 0.3 mg/kg [4]: > 50%
- ED50 [3]: < 0.3 mg/kg
- pKB [1]: 10.2

Structure (SMILES): O=c1c(-c2ccccc2)c(O)c2c(n1Cc1ccc(-c3ccccc3-c3nnn[nH]3)cc1)CCC2
- IC50 [2]: 1250 nM

Structure (SMILES): COc1ccc2c(O)c(-c3ccccc3)c(=O)n(Cc3ccc(-c4ccccc4-c4nnn[nH]4)cc3)c2c1
- IC50 [2]: 2200 nM

Structure (SMILES): CCCCc1nc(Cl)c(CO)n1Cc1ccc(-c2ccccc2-c2nnn[nH]2)cc1 [LOSARTAN]
- ED50 [3]: 1.2 mg/kg
- pKB [1]: 8.3

Structure (SMILES): CCOc1ccc2c(O)cc(=O)n(Cc3ccc(-c4ccccc4-c4nn[nH]n4)cc3)c2c1
- pKB [1]: 8.9

Structure (SMILES): O=c1c(-c2ccccc2)c(O)c2ccccc2n1Cc1ccc(-c2ccccc2-c2nn[nH]n2)cc1
- ED50 [3]: 1.2 mg/kg
- pKB [1]: 7.2
- IC50 [2]: 1700 nM

Structure (SMILES): CCOc1ccc2c(O)c(-c3ccccc3)c(=O)n(Cc3ccc(-c4ccccc4C(=O)O)cc3)c2c1
- pKB [1]: 7.7
- IC50 [2]: 1800 nM

Structure (SMILES): CCc1cc2c(O)c(-c3ccccc3)c(=O)n(Cc3ccc(-c4ccccc4-c4nn[nH]n4)cc3)c2s1
- ED50 [3]: 5 mg/kg
- IC50 [2]: 90 nM

Structure (SMILES): Cc1ccc2c(O)c(-c3ccccc3)c(=O)n(Cc3ccc(-c4ccccc4-c4nnn[nH]4)cc3)c2n1
- IC50 [2]: 1250 nM

Structure (SMILES): O=c1c(-c2ccccc2)c(O)c2c(n1Cc1ccc(-c3ccccc3-c3nn[nH]n3)cc1)CCC2
- pKB [1]: 7.2

Structure (SMILES): COc1ccc2c(O)c(C(C)=O)c(=O)n(Cc3ccc(-c4ccccc4C(=O)O)cc3)c2c1
- pKB [1]: 6.6

Source: ChEMBL document CHEMBL1127230, “New non-peptide angiotensin II receptor antagonists. 2: structure - activity relationship of a series of annelated 2(1H)-pyridinones” (Bioorg Med Chem Lett, 1994)
